The NIST ThermoML archive (doi:10.1021/acs.jced.9b00248)
± gives the expanded uncertainty stated by the source.

Assay: mn = molality of the nth substance listed, in mol/kg
Conditions: Liquid; for viscosity: Vibrating wire viscometry; for mass density: Vibrating tube method

[Cl-].[Na+] [sodium chloride] + O
Conditions	mass density [kg/m3]	viscosity [mPa·s]
274.65 K, 1400 kPa, m1 = 0.77	–	1.748 ± 0.053
274.65 K, 15300 kPa, m1 = 0.77	–	1.718 ± 0.052
274.65 K, 30200 kPa, m1 = 0.77	–	1.704 ± 0.052
274.65 K, 50100 kPa, m1 = 0.77	–	1.7 ± 0.052
274.83 K, 15210 kPa, m1 = 0.77	1039.38 ± 0.69	–
274.83 K, 30120 kPa, m1 = 0.77	1045.95 ± 0.7	–
274.83 K, 49950 kPa, m1 = 0.77	1054.41 ± 0.71	–
274.83 K, 69810 kPa, m1 = 0.77	1062.53 ± 0.73	–
274.83 K, 99820 kPa, m1 = 0.77	1074.13 ± 0.78	–
274.95 K, 1340 kPa, m1 = 2.5	1098.36 ± 0.87	–
274.95 K, 15260 kPa, m1 = 2.5	1103.81 ± 0.88	–
274.95 K, 30190 kPa, m1 = 2.5	1109.5 ± 0.89	–
274.95 K, 50040 kPa, m1 = 2.5	1116.83 ± 0.92	–
274.95 K, 69930 kPa, m1 = 2.5	1123.92 ± 0.97	–
274.95 K, 99990 kPa, m1 = 2.5	1134.12 ± 1.1	–
296.19 K, 1330 kPa, m1 = 2.5	1090.47 ± 0.85	–
296.19 K, 15240 kPa, m1 = 2.5	1095.73 ± 0.86	–
296.19 K, 30160 kPa, m1 = 2.5	1101.16 ± 0.87	–
296.19 K, 50020 kPa, m1 = 2.5	1108.18 ± 0.92	–
296.19 K, 69880 kPa, m1 = 2.5	1115.02 ± 0.96	–
296.19 K, 99980 kPa, m1 = 2.5	1124.82 ± 1	–
296.22 K, 1380 kPa, m1 = 0.77	1028.25 ± 0.69	–
296.22 K, 15220 kPa, m1 = 0.77	1034.12 ± 0.7	–
296.22 K, 49930 kPa, m1 = 0.77	1048.04 ± 0.71	–
296.22 K, 69810 kPa, m1 = 0.77	1055.61 ± 0.72	–
296.22 K, 99840 kPa, m1 = 0.77	1066.51 ± 0.76	–
323.3 K, 1380 kPa, m1 = 2.5	1077.94 ± 0.83	–
323.3 K, 15290 kPa, m1 = 2.5	1083.2 ± 0.84	–
323.3 K, 30220 kPa, m1 = 2.5	1088.58 ± 0.85	–
323.3 K, 50060 kPa, m1 = 2.5	1095.53 ± 0.91	–
323.3 K, 69950 kPa, m1 = 2.5	1102.24 ± 0.94	–
323.3 K, 100010 kPa, m1 = 2.5	1111.99 ± 1	–
323.33 K, 1340 kPa, m1 = 0.77	1017.8 ± 0.69	–
323.33 K, 15260 kPa, m1 = 0.77	1023.47 ± 0.69	–
323.33 K, 30160 kPa, m1 = 0.77	1029.36 ± 0.7	–
323.33 K, 69840 kPa, m1 = 0.77	1044.3 ± 0.71	–
323.33 K, 99890 kPa, m1 = 0.77	1054.9 ± 0.74	–
348.21 K, 1360 kPa, m1 = 2.5	1064.12 ± 0.82	–
348.21 K, 1380 kPa, m1 = 0.77	1004.37 ± 0.68	–
348.21 K, 15260 kPa, m1 = 0.77	1010.15 ± 0.68	–
348.21 K, 15270 kPa, m1 = 2.5	1069.47 ± 0.83	–
348.21 K, 30180 kPa, m1 = 0.77	1016.18 ± 0.69	–
348.21 K, 30200 kPa, m1 = 2.5	1075.01 ± 0.84	–
348.21 K, 50000 kPa, m1 = 0.77	1023.83 ± 0.69	–
348.21 K, 50060 kPa, m1 = 2.5	1082.15 ± 0.85	–
348.21 K, 69880 kPa, m1 = 0.77	1031.26 ± 0.69	–
348.21 K, 69960 kPa, m1 = 2.5	1089.02 ± 0.94	–
348.21 K, 99920 kPa, m1 = 0.77	1041.89 ± 0.72	–
348.21 K, 100020 kPa, m1 = 2.5	1098.91 ± 1	–
348.34 K, 1400 kPa, m1 = 0.77	–	0.412 ± 0.013
348.34 K, 15300 kPa, m1 = 0.77	–	0.416 ± 0.013
348.34 K, 30200 kPa, m1 = 0.77	–	0.421 ± 0.014
348.34 K, 50000 kPa, m1 = 0.77	–	0.429 ± 0.014
348.34 K, 69900 kPa, m1 = 0.77	–	0.433 ± 0.014
373.22 K, 1380 kPa, m1 = 2.5	1047.69 ± 0.81	–
373.22 K, 15310 kPa, m1 = 2.5	1053.49 ± 0.82	–
373.22 K, 30230 kPa, m1 = 2.5	1059.36 ± 0.83	–
373.22 K, 50090 kPa, m1 = 2.5	1066.79 ± 0.84	–
373.22 K, 69960 kPa, m1 = 2.5	1073.94 ± 0.86	–
373.22 K, 100040 kPa, m1 = 2.5	1084.13 ± 0.98	–
373.25 K, 1400 kPa, m1 = 0.77	988.09 ± 0.67	–
373.25 K, 15310 kPa, m1 = 0.77	994.18 ± 0.67	–
373.25 K, 30220 kPa, m1 = 0.77	1000.44 ± 0.67	–
373.25 K, 50060 kPa, m1 = 0.77	1008.5 ± 0.68	–
373.25 K, 69930 kPa, m1 = 0.77	1016.2 ± 0.69	–
373.25 K, 99960 kPa, m1 = 0.77	1027.15 ± 0.69	–
373.31 K, 1400 kPa, m1 = 0.77	–	0.31 ± 0.01
373.31 K, 30200 kPa, m1 = 0.77	–	0.318 ± 0.011
373.31 K, 50000 kPa, m1 = 0.77	–	0.323 ± 0.011
373.31 K, 69900 kPa, m1 = 0.77	–	0.329 ± 0.011
373.31 K, 100000 kPa, m1 = 0.77	–	0.338 ± 0.011
398.18 K, 1400 kPa, m1 = 0.77	–	0.247 ± 0.009
398.18 K, 15300 kPa, m1 = 0.77	–	0.251 ± 0.009
398.18 K, 30200 kPa, m1 = 0.77	–	0.256 ± 0.009
398.18 K, 50100 kPa, m1 = 0.77	–	0.26 ± 0.009
398.18 K, 70000 kPa, m1 = 0.77	–	0.265 ± 0.009
398.18 K, 100000 kPa, m1 = 0.77	–	0.273 ± 0.009
398.29 K, 1390 kPa, m1 = 2.5	1029.58 ± 0.94	–
398.29 K, 15300 kPa, m1 = 2.5	1035.58 ± 0.94	–
398.29 K, 30230 kPa, m1 = 2.5	1041.92 ± 0.93	–
398.29 K, 50080 kPa, m1 = 2.5	1049.89 ± 0.93	–
398.29 K, 69980 kPa, m1 = 2.5	1057.41 ± 0.94	–
398.29 K, 100050 kPa, m1 = 2.5	1068.15 ± 0.97	–
398.81 K, 1460 kPa, m1 = 0.77	969.16 ± 0.64	–
398.81 K, 15370 kPa, m1 = 0.77	975.7 ± 0.65	–
398.81 K, 30260 kPa, m1 = 0.77	982.49 ± 0.65	–
398.81 K, 50080 kPa, m1 = 0.77	991.06 ± 0.66	–
398.81 K, 69950 kPa, m1 = 0.77	999.13 ± 0.66	–
398.81 K, 99990 kPa, m1 = 0.77	1010.69 ± 0.67	–
423.31 K, 15300 kPa, m1 = 0.77	–	0.206 ± 0.008
423.31 K, 30200 kPa, m1 = 0.77	–	0.212 ± 0.008
423.31 K, 50100 kPa, m1 = 0.77	–	0.216 ± 0.008
423.31 K, 70000 kPa, m1 = 0.77	–	0.22 ± 0.008
423.31 K, 100000 kPa, m1 = 0.77	–	0.228 ± 0.008
423.62 K, 1410 kPa, m1 = 2.5	1009.24 ± 0.98	–
423.62 K, 15330 kPa, m1 = 2.5	1015.81 ± 0.97	–
423.62 K, 30250 kPa, m1 = 2.5	1022.75 ± 0.81	–
423.62 K, 50100 kPa, m1 = 2.5	1031.25 ± 0.81	–
423.62 K, 69990 kPa, m1 = 2.5	1039.38 ± 0.82	–
423.62 K, 100050 kPa, m1 = 2.5	1050.77 ± 0.96	–
423.73 K, 1450 kPa, m1 = 0.77	947.66 ± 0.63	–
423.73 K, 15370 kPa, m1 = 0.77	954.86 ± 0.64	–
423.73 K, 30270 kPa, m1 = 0.77	962.29 ± 0.66	–
423.73 K, 50110 kPa, m1 = 0.77	971.57 ± 0.66	–
423.73 K, 69960 kPa, m1 = 0.77	980.32 ± 0.67	–
423.73 K, 100000 kPa, m1 = 0.77	992.59 ± 0.66	–
448.27 K, 30300 kPa, m1 = 0.77	–	0.181 ± 0.007
448.27 K, 50100 kPa, m1 = 0.77	–	0.185 ± 0.007
448.27 K, 70000 kPa, m1 = 0.77	–	0.19 ± 0.007
448.27 K, 100000 kPa, m1 = 0.77	–	0.197 ± 0.007
448.85 K, 1410 kPa, m1 = 2.5	987.39 ± 1	–
448.85 K, 15330 kPa, m1 = 2.5	994.66 ± 0.98	–
448.85 K, 30260 kPa, m1 = 2.5	1002.41 ± 0.97	–
448.85 K, 50110 kPa, m1 = 2.5	1011.56 ± 0.8	–
448.97 K, 1460 kPa, m1 = 0.77	923.83 ± 0.62	–
448.97 K, 15380 kPa, m1 = 0.77	932.02 ± 0.63	–
448.97 K, 30290 kPa, m1 = 0.77	940.31 ± 0.63	–
448.97 K, 50120 kPa, m1 = 0.77	950.53 ± 0.66	–
448.97 K, 69980 kPa, m1 = 0.77	960.05 ± 0.67	–
448.97 K, 100000 kPa, m1 = 0.77	973.43 ± 0.66	–
